# From patent US11286414B2, “Sodium nitroprusside and nitrate metabolic inhibition of sulfate-reducing microbes to control sulfide production” (UTI Limited Partnership, priority 2017, dated 2022)
# Experiments:
# 4PW SRB consortia = assay: Comparison of SNP with other biocides on souring; assay type: cell-based, SRB consortia enriched from 4PW; conditions: 10 ppm added at start of growth, one month
# SRB consortia = assay: Souring control in sand-packed bioreactors containing heavy oil; assay type: cell-based, SRB consortia from MHGC produced water (18PW)
Compound,"metabolic activity and growth of SRB (sulfide, sulfate, lactate concentrations) (4PW SRB consortia)",effect on sulfide concentration in the effluent (SRB consortia; injection of 2 PV CSBK-S with 85 ppm (1 mM) or 170 ppm (2 mM) nitrate),sulfate reduction (SRB consortia; injection of 2 PV of 340 ppm (4 mM) nitrate),concentration that inhibited sulfate reduction / controlled souring when used singly (SRB consortia; oil as electron donor) [ppm]
tetrakishydroxymethyl phosphonium sulfate [THPS],not effective at this low dosage,,,
"O=CCCCC=O [Glut, glutaraldehyde]",not effective at this low dosage,,,
"O=[N+]([O-])[O-].[Na+] [nitrate, sodium nitrate]",,did not affect the sulfide concentration in the effluent,inhibition of sulfate reduction was observed,340
benzalkonium chloride [BAC],not effective at this low dosage,,,
cocodiamine,not effective at this low dosage,,,
